Peptide text beside a SMILES is read from it.

Assay [1] concerns A875 cellular spheroids. The experiment in a line: 3D spheroid diameter, A875. The note with it: only at 200 μM, 5 days. Format: cell-based. The protocol: A375 and A875 cells were collected and suspended in Matrigel (Corning) with a density of 1.0 × 10^7 cells per mL. 3D spheroids were fabricate using cell-processing system that have two pumps. One pump was loaded with Matrigel and another with fluorocarbon oil (3 M NOVEC, HFE-7000). The flow rate of Matrigel was 20 μL/min and the fluorocarbon oil rate was 30 μL/min. The 3D spheroids were incubated at 37 °C with 5% CO2 after printing. Culturing medium was DMEM medium supplemented with 10% FBS, and 100 IU of penicillin and […] streptomycin. The medium was changed every 3 days. Afterward, the 3D spheroids were harvested for drug analysis.
(§1) Prepared melanoma cells spheroids were plated in 48-well plates. Following incubation for 3 days, the spheroids were exposed to different concentrations (0, 50, 100 and 200 μM) of CY12-RP2, and changes in spheroid diameter were detected after 5 days of treatment. Additionally, melanoma cell spheroids were treated with various concentrations of CY12-RP2 as described previously, and after 72 h, the spheroids were stained for immunofluorescence with caspase 3 primary antibody. The specific experimental procedures refer to the following immunofluorescence analysis. Additionally, we co-cultured peptide-stimulated PBMC with spheroids to determine the tumor-killing ability of activated PBMC.

Assay [2] relates to A375 cell spheroids (caspase3). The experiment in a line: Caspase3 immunofluorescence in 3D spheroids. Format: cell-based. The note with it: 3D melanoma cell spheroids (A375 in Fig. S3G legend), 72 h. The procedure: as §1
Transwell assays were performed to quantify the modulatory effects of SKL2001 and IWR1 (C). Statistical analysis was performed to evaluate the invasion of cells (D). The power field scale bar, 100 μm. (E) Western blot assays were also performed on EMT-related proteins to identify the effects of SKL2001 and IWR1. […]
(A) Cell viability of melanoma cell lines (A375, A875) treated with 6 peptides except CY12-RP2 at various concentrations for 48 h. […] (C) SPR assay was performed to quantify […]
melanoma cell lines (A375, A875). […] (G) Immunofluorescence staining was performed to measure the caspase3 fluorescence intensity of A375 cell spheroids after treating with CY12-RP2. […]

Assay [3] concerns A375 cells. The experiment in a line: Wound healing (migration), A375. Format: cell-based. The note with it: wound healing, 0, 5, 25 μM, 24 h or 48 h. The protocol: A375 GFP, A875 GFP, A375 PDPN^−/−, and A875 PDPN^+/+ cells were all seeded in 12-well plates at a density of 5 × 10^5 cells/well. When the cells reached 100% confluence the next day, the straight wound was scraped in each cultured well with a 20 µL pipette tip. Then the cells were washed repeatedly with complete DMEM to remove the cellular debris, and the medium was changed to a low serum medium containing 0.05% FBS. The scratch-treated cells were subsequently cultured for an additional indicated time and imaged at 0 h, 12 h, 24 h and 48 h. Quantification of wound closure was accomplished by measuring the distance between the phase contrast images’ anterior edges of the contralateral surfaces using ImageJ software. As for peptide (CY12-RP2) function experiments, images of phase contrast for A375 GFP and A875 GFP cells were captured at 0 h before peptide administration. The cells were then treated with CY12-RP2 (0 μM, 5 μM, 25 μM) for 24 h or 48 h, and then images were acquired again. Handling of the experimental results were carried out as previously described.

In assay [4] the test system is melanoma cells. The experiment in a line: Melanoma cell / stimulated PBMC co-culture killing. Format: cell-based. The note with it: PBMC ratios 0%-50%, 48 h, crystal violet. The procedure: PBMCs (Shenzhen People's Hospital. Shenzhen, China)) from a healthy donor were isolated using a density gradient centrifugation procedure. Firstly, the immune cell proportions analysis of PBMCs was measured using flow cytometry. We then investigated the effect of CY12-RP2 on the cytokines in PBMCs using ELISA assays. Briefly, PBMCs (5 × 10^5 cells/well) were cultured in 24-well plates with RPMI1640 containing 10% FBS for 24 h, and the cells were stimulated with CY12-RP2 (50 µM) for 48 h. Afterward, supernatants were collected for subsequent assays. […] The experimental results were then observed by crystal violet staining after 48 h.

For assay [5], the system named is B16F10-Luc lung metastasis. Format: in vivo, BALB/c mice. The note with it: 25 and 100 mg/kg i.v. every two days, 15 days. The protocol: For pulmonary metastasis assays, 6- to 8-week-old female BALB/c mice were administered with 5 × 10^5 B16F10-Luc cells via tail vein to establish an experimental pulmonary metastasis model of melanoma. CY12-RP2 was administered to the mice intravenously at high and low doses (25 mg/kg and 100 mg/kg) every two days, and the mice were sacrificed after 15 days of treatment. Pulmonary metastases were evaluated using bioluminescence imaging on the 2nd, 5th, 10th, 15th and 20th day after B16F10-Luc cells injection. Subsequently, the BALB/c mice were sacrificed, and the organs including the heart, liver, spleen, lung, and kidney were collected and imaged for evaluation of micrometastases. The xenografts and organs were kept in a 4% paraformaldehyde solution for subsequent histological assays.

On to `CC(C)C[C@H](NC(=O)[C@H](Cc1ccc(O)cc1)NC(=O)[C@@H](N)[C@@H](C)O)C(=O)N[C@@H](CS)C(=O)N[C@H](C(=O)N[C@@H](C)C(=O)N[C@@H](CS)C(=O)N[C@@H](CC(=O)O)C(=O)N[C@@H](Cc1ccc(O)cc1)C(=O)N[C@H](C(=O)N[C@@H](Cc1c[nH]cn1)C(=O)N[C@@H](Cc1c[nH]cn1)C(=O)O)[C@@H](C)O)[C@@H](C)O` [CY12-RP2] (H-TYLCTACDYTHH-OH; N-terminus and C-terminus assumed), for which the relative spheroid diameter entry in assay [1] is listed as “only a high concentration of CY12-RP2 (200 μM) could decrease the diameter”. For the same compound, the “level of Caspase3” value in assay [2] was “significantly increased”. The migration result in assay [3] was “inhibited migration at the corresponding time both in A375 and A875 cells, but A375 cells were more susceptible”. Also, the “viability of tumor cells with CY12-RP2-pretreated PBMC” value in assay [4] is reported as “declined significantly”. Besides, the pulmonary metastases entry in assay [5] (bioluminescence, vs control) is “significantly fewer pulmonary metastases”. In addition, the “size of nodules and frequency of metastases in the lungs” value in assay [5] (ex vivo organ bioluminescence) is “significant reduction”. The “metastatic nodules in the lung” value in assay [5] (representative nodule images) is reported as “significantly reduced”.

The values above are taken from publication PMC10759609, “A novel PDPN antagonist peptide CY12-RP2 inhibits melanoma growth via Wnt/β-catenin and modulates the immune cells” (Journal of Experimental & Clinical Cancer Research : CR, 2024).
